Reference: ChEMBL document CHEMBL2406981, “Novel pyrazoline amidoxime and their 1,2,4-oxadiazole analogues: synthesis and pharmacological screening” (Bioorg Med Chem Lett, 2013)
In brackets after ≈: the same amount, converted by molar mass.

Columns and labels:
Type in all cases: functional
[1] = Antiinflammatory activity against heat-induced albumin denaturation at […] preincubated for 15 mins before heat induction by UV-vis spectrophotometer analysis
Aspergillus flavus [2] = experiment: Antimicrobial activity against Aspergillus flavus MTCC 873
Aspergillus niger [3] = experiment: Antimicrobial activity against Aspergillus niger MTCC 281
Shigella flexneri [4] = experiment: Antimicrobial activity against Shigella flexneri MTCC 1457
Escherichia coli [5] = experiment: Antimicrobial activity against Escherichia coli MTCC 724
Klebsiella pneumoniae [6] = experiment: Antimicrobial activity against Klebsiella pneumoniae MTCC 3384
Staphylococcus aureus [7] = experiment: Antimicrobial activity against Staphylococcus aureus MTCC 96
Bacillus cereus [8] = experiment: Antimicrobial activity against Bacillus cereus MTCC 8372
Aspergillus niger [9] = experiment: Antimicrobial activity against Aspergillus niger MTCC 281 at 50 ug/ml after 24 hrs by agar disc diffusion method; details: MTCC 281, 24 h, read-out: DIZ
Aspergillus niger [10] = experiment: Antimicrobial activity against Aspergillus niger MTCC 281 at 100 ug/ml after 24 hrs by agar disc diffusion method; details: MTCC 281, 24 h, read-out: DIZ
Aspergillus flavus [11] = experiment: Antimicrobial activity against Aspergillus flavus MTCC 873 at 100 ug/ml after 24 hrs by agar disc diffusion method; details: MTCC 873, 24 h, read-out: DIZ
Aspergillus flavus [12] = experiment: Antimicrobial activity against Aspergillus flavus MTCC 873 at 50 ug/ml after 24 hrs by agar disc diffusion method; details: MTCC 873, 24 h, read-out: DIZ
Shigella flexneri [13] = experiment: Antimicrobial activity against Shigella flexneri MTCC 1457 at 100 ug/ml after 24 hrs by agar disc diffusion method; details: MTCC 1457, 24 h, read-out: DIZ
Shigella flexneri [14] = experiment: Antimicrobial activity against Shigella flexneri MTCC 1457 at 50 ug/ml after 24 hrs by agar disc diffusion method; details: MTCC 1457, 24 h, read-out: DIZ
Klebsiella pneumoniae [15] = experiment: Antimicrobial activity against Klebsiella pneumoniae MTCC 3384 at 100 ug/ml after 24 hrs by agar disc diffusion method; details: MTCC 3384, 24 h, read-out: DIZ
Klebsiella pneumoniae [16] = experiment: Antimicrobial activity against Klebsiella pneumoniae MTCC 3384 at 50 ug/ml after 24 hrs by agar disc diffusion method; details: MTCC 3384, 24 h, read-out: DIZ
Escherichia coli [17] = experiment: Antimicrobial activity against Escherichia coli MTCC 724 at 100 ug/ml after 24 hrs by agar disc diffusion method; details: MTCC 724, 24 h, read-out: DIZ
Escherichia coli [18] = experiment: Antimicrobial activity against Escherichia coli MTCC 724 at 50 ug/ml after 24 hrs by agar disc diffusion method; details: MTCC 724, 24 h, read-out: DIZ
Staphylococcus aureus [19] = experiment: Antimicrobial activity against Staphylococcus aureus MTCC 96 at 100 ug/ml after 24 hrs by agar disc diffusion method; details: MTCC 96, 24 h, read-out: DIZ
Staphylococcus aureus [20] = experiment: Antimicrobial activity against Staphylococcus aureus MTCC 96 at 50 ug/ml after 24 hrs by agar disc diffusion method; details: MTCC 96, 24 h, read-out: DIZ
Bacillus cereus [21] = experiment: Antimicrobial activity against Bacillus cereus MTCC 8372 at 100 ug/ml after 24 hrs by agar disc diffusion method; details: MTCC 8372, 24 h, read-out: DIZ
Bacillus cereus [22] = experiment: Antimicrobial activity against Bacillus cereus MTCC 8372 at 50 ug/ml after 24 hrs by agar disc diffusion method; details: MTCC 8372, 24 h, read-out: DIZ
[23] = Antioxidant activity against ferric chloride-induced lipid peroxidation using egg lecithin at 50 ug/ml after 1 hr
[24] = Antioxidant activity against ferric chloride-induced lipid peroxidation using egg lecithin at 100 ug/ml after 1 hr
[25] = Antioxidant activity against ferric chloride-induced lipid peroxidation using egg lecithin at 10 ug/ml after 1 hr
[26] = Antioxidant activity assessed as reducing power of ferric ion at 50 ug/ml after 20 mins; set-up: scale not given: the % may be the effect or the level left
[27] = Antioxidant activity assessed as reducing power of ferric ion at 100 ug/ml after 20 mins; set-up: scale not given: the % may be the effect or the level left
[28] = Antioxidant activity assessed as reducing power of ferric ion at 10 ug/ml after 20 mins; set-up: scale not given: the % may be the effect or the level left
[29] = test system: Radical scavenging activity; experiment: Antioxidant activity assessed as DPPH free radical scavenging activity at 50 ug/ml after 20 mins
[30] = test system: Radical scavenging activity; experiment: Antioxidant activity assessed as DPPH free radical scavenging activity at 100 ug/ml after 20 mins
[31] = test system: Radical scavenging activity; experiment: Antioxidant activity assessed as DPPH free radical scavenging activity at 10 ug/ml after 20 mins

Structure (SMILES) | inhibition [1] [%] | MIC (Aspergillus flavus [2]) [µg/mL] | MIC (Aspergillus niger [3]) [µg/mL] | MIC (Shigella flexneri [4]) [µg/mL] | MIC (Escherichia coli [5]) [µg/mL] | MIC (Klebsiella pneumoniae [6]) [µg/mL] | MIC (Staphylococcus aureus [7]) [µg/mL] | MIC (Bacillus cereus [8]) [µg/mL] | zone of inhibition at 50 µg/mL (Aspergillus niger [9]) [mm] | zone of inhibition at 100 µg/mL (Aspergillus niger [10]) [mm] | zone of inhibition at 100 µg/mL (Aspergillus flavus [11]) [mm] | zone of inhibition at 50 µg/mL (Aspergillus flavus [12]) [mm] | zone of inhibition at 100 µg/mL (Shigella flexneri [13]) [mm] | zone of inhibition at 50 µg/mL (Shigella flexneri [14]) [mm] | zone of inhibition at 100 µg/mL (Klebsiella pneumoniae [15]) [mm] | zone of inhibition at 50 µg/mL (Klebsiella pneumoniae [16]) [mm] | zone of inhibition at 100 µg/mL (Escherichia coli [17]) [mm] | zone of inhibition at 50 µg/mL (Escherichia coli [18]) [mm] | zone of inhibition at 100 µg/mL (Staphylococcus aureus [19]) [mm] | zone of inhibition at 50 µg/mL (Staphylococcus aureus [20]) [mm] | other results
COc1cc(-c2nc(C3CC(c4ccc(O)cc4)=NN3c3ccccc3)no2)cc(OC)c1OC (configuration not stated) | 59.3 | 10 (≈ 21.2 µM) | 5 (≈ 10.6 µM) | 10 (≈ 21.2 µM) | 15 (≈ 31.7 µM) | 10 (≈ 21.2 µM) | 15 (≈ 31.7 µM) | 10 (≈ 21.2 µM) | 18 | 30 | 26 | 14 | 22 | 14 | 18 | 12 | 16 | 10 | 18 | 10 | zone of inhibition at 100 µg/mL (Bacillus cereus [21]): 18 mm; zone of inhibition at 50 µg/mL (Bacillus cereus [22]): 12 mm; inhibition [23]: 62%; inhibition [24]: 87%; inhibition [25]: 42%; Activity [26]: 26%; Activity [27]: 76%; Activity [28]: 16%; Activity [29]: 63%; Activity [30]: 91%; Activity [31]: 34%
COc1ccc(-c2nc(C3CC(c4ccc(Cl)cc4)=NN3c3ccccc3)no2)cc1OC (configuration not stated) | 53.5 | 10 (≈ 21.7 µM) | 10 (≈ 21.7 µM) | 15 (≈ 32.5 µM) | 20 (≈ 43.4 µM) | 15 (≈ 32.5 µM) | 25 (≈ 54.2 µM) | 20 (≈ 43.4 µM) | 14 | 27 | 21 | 14 | 16 | 10 | 11 | 9 | 12 | 8 | 12 | 6 | zone of inhibition at 100 µg/mL (Bacillus cereus [21]): 14 mm; zone of inhibition at 50 µg/mL (Bacillus cereus [22]): 8 mm; inhibition [23]: 52%; inhibition [24]: 73%; inhibition [25]: 30%; Activity [26]: 29%; Activity [27]: 75%; Activity [28]: 14%; Activity [29]: 59%; Activity [30]: 86%; Activity [31]: 30%
